In experiment [1] the target is Ribosomal protein S6 kinase alpha-2 (Homo sapiens) (UniProt Q15349). Nature of the experiment: Inhibition of C-terminal RSK3 […] domain 2 (unknown origin) assessed as residual activity at 100 nM by KINOMEscan analysis relative to control.
For experiment [2], the target named is T1, Serine/threonine-protein kinase ULK3 (Homo sapiens) (UniProt Q6PHR2).
T1 sequence (whole entry): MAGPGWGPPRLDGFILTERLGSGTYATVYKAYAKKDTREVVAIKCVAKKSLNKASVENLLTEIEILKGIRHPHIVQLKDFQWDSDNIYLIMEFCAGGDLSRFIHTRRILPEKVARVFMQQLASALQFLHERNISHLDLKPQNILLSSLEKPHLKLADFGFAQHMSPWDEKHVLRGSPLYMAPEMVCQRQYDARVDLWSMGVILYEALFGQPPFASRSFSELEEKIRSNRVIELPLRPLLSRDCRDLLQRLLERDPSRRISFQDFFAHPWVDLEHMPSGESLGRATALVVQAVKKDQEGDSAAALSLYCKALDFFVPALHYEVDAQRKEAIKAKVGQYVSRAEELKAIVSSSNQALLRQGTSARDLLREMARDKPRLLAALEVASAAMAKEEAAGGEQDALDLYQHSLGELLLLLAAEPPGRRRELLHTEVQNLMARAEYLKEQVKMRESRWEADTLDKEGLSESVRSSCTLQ
The experiment in a line: Inhibition of ULK3 (unknown origin) assessed as residual activity at 100 nM by KINOMEscan analysis relative to control.

For experiment [3], the target named is Serine/threonine-protein kinase WNK3 (Homo sapiens) (UniProt Q9BYP7). The experiment in a line: Inhibition of WNK3 (unknown origin) assessed as residual activity at 100 nM by KINOMEscan analysis relative to control.
Experiment [4] concerns the target Myosin light chain kinase, smooth muscle (Homo sapiens) (UniProt Q15746). The experiment in a line: Inhibition of MYLK (unknown origin) assessed as residual activity at 100 nM by KINOMEscan analysis relative to control.
Experiment [5] has as its target Dual specificity tyrosine-phosphorylation-regulated kinase 1B (Homo sapiens) (UniProt Q9Y463). Nature of the experiment: Inhibition of DYRK1B (unknown origin) assessed as residual activity at 100 nM by KINOMEscan analysis relative to control.
The test system of experiment [6] is Tyrosine-protein kinase ABL1 (Homo sapiens), P00519 [F317L]. Nature of the experiment: Inhibition of nonphosphorylated ABL1 F317L mutant (unknown origin) assessed as residual activity at 100 nM by KINOMEscan analysis relative to control.
Experiment [7] concerns Proto-oncogene tyrosine-protein kinase receptor Ret (Homo sapiens), P07949 [V804M]. Nature of the experiment: Inhibition of RET V804M mutant (unknown origin) assessed as residual activity at 100 nM by KINOMEscan analysis relative to control.
Experiment [8] deals with T2, Mitogen-activated protein kinase kinase kinase 3 (Homo sapiens) (UniProt Q99759).
T2 sequence (whole entry): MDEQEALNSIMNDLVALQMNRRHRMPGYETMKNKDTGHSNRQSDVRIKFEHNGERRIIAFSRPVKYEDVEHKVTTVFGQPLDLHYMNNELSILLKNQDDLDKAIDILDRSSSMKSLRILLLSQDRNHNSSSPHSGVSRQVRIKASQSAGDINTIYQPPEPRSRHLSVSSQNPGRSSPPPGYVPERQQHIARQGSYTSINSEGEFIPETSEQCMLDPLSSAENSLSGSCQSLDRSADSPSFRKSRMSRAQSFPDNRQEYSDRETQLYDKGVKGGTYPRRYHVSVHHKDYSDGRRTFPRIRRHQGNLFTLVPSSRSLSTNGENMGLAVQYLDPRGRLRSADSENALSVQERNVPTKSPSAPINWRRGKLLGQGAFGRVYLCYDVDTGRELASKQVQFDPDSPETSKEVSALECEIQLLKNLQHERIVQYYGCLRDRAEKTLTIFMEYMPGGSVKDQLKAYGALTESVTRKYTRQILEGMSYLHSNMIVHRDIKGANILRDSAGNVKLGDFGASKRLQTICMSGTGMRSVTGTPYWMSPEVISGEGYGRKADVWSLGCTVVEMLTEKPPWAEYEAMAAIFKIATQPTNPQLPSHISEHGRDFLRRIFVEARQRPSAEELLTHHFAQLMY
The experiment in a line: Inhibition of MAP3K3 (unknown origin) assessed as residual activity at 100 nM by KINOMEscan analysis relative to control.

In experiment [9] the target is T3, Mitogen-activated protein kinase 13 (Homo sapiens) (UniProt O15264).
T3 sequence (whole entry): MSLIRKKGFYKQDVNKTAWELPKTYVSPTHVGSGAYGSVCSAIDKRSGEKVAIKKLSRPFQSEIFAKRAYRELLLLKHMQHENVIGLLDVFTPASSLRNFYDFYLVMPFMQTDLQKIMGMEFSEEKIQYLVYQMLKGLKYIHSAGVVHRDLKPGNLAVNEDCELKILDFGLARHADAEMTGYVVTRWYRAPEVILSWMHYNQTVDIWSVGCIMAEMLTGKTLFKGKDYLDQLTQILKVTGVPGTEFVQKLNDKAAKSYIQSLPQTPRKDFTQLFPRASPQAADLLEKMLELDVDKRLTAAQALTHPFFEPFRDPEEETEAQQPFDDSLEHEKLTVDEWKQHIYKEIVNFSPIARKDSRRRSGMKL
Nature of the experiment: Inhibition of p38-delta (unknown origin) assessed as residual activity at 100 nM by KINOMEscan analysis relative to control.

In experiment [10] the target is Serine/threonine-protein kinase PLK2 (Homo sapiens) (UniProt Q9NYY3). The experiment in a line: Inhibition of PLK2 (unknown origin) assessed as residual activity at 100 nM by KINOMEscan analysis relative to control.
Experiment [11] has as its target T4, Membrane-associated tyrosine- and threonine-specific cdc2-inhibitory kinase (Homo sapiens) (UniProt Q99640).
T4 sequence (whole entry): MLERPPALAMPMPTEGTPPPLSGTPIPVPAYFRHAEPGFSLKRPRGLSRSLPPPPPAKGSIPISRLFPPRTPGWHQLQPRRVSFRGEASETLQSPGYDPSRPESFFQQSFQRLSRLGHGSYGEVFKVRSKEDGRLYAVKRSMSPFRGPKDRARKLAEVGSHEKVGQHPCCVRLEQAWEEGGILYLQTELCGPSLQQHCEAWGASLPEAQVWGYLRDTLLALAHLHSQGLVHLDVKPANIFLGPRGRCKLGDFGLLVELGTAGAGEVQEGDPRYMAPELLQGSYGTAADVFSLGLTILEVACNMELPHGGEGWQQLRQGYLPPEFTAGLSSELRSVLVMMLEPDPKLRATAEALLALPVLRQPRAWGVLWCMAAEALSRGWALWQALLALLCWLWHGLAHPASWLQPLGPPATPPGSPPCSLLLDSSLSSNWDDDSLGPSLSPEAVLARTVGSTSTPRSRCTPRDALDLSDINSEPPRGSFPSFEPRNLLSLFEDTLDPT
Nature of the experiment: Inhibition of PKMYT1 (unknown origin) assessed as residual activity at 100 nM by KINOMEscan analysis relative to control.

Experiment [12] has as its target Focal adhesion kinase 1 (Homo sapiens) (UniProt Q05397). The experiment in a line: Inhibition of FAK (unknown origin) assessed as residual activity at 100 nM by KINOMEscan analysis relative to control.

Chain of Proto-oncogene tyrosine-protein kinase receptor Ret (Homo sapiens), P07949 [V804M] (P07949 whole entry V804M): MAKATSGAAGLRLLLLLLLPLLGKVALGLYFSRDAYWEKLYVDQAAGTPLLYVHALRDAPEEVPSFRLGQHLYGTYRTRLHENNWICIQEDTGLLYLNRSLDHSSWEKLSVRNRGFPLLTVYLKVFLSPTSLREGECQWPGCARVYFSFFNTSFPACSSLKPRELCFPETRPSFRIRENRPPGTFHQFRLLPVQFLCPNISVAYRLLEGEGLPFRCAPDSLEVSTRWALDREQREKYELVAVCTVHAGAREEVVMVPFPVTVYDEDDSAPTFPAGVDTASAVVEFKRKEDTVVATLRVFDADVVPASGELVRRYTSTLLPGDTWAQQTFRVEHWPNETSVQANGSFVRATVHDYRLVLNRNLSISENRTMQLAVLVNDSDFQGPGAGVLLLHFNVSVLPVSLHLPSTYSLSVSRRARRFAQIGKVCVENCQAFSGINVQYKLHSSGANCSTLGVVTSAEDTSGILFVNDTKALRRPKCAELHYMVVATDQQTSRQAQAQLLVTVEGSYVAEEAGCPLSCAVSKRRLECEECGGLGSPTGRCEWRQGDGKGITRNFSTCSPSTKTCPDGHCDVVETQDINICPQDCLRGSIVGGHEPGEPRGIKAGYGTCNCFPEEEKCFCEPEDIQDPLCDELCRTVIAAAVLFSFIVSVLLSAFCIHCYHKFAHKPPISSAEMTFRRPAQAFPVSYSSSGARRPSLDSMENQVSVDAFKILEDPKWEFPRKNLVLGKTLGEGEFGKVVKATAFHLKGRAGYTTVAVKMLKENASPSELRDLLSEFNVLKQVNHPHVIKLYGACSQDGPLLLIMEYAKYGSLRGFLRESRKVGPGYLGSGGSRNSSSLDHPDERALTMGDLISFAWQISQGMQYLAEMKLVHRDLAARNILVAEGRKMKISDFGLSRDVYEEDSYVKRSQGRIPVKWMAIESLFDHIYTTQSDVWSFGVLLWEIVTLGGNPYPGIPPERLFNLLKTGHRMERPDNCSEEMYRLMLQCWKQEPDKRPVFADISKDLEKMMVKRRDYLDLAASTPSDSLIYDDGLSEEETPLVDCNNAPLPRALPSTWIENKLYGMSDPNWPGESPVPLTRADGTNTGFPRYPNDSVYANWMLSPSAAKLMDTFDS
Chain of Serine/threonine-protein kinase PLK2 (Homo sapiens) (Q9NYY3 whole entry, looked up): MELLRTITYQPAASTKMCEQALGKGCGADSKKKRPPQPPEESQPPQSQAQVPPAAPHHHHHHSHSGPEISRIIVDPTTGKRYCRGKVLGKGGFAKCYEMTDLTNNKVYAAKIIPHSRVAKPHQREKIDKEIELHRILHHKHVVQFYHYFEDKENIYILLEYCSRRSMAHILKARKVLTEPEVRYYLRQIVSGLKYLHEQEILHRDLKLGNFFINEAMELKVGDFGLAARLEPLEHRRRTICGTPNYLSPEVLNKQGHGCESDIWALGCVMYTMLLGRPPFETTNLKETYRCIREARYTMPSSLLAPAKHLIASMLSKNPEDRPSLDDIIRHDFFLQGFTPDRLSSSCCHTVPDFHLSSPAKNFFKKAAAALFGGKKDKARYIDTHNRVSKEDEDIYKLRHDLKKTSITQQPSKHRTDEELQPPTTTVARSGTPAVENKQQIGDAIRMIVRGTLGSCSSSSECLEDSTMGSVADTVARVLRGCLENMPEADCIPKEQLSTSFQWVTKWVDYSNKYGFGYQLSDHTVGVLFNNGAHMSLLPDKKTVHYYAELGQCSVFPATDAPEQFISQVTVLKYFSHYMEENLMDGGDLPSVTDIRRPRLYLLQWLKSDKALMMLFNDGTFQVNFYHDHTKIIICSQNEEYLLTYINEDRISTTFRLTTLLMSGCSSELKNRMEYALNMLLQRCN
Chain of Focal adhesion kinase 1 (Homo sapiens) (Q05397 2-1052 limits assumed): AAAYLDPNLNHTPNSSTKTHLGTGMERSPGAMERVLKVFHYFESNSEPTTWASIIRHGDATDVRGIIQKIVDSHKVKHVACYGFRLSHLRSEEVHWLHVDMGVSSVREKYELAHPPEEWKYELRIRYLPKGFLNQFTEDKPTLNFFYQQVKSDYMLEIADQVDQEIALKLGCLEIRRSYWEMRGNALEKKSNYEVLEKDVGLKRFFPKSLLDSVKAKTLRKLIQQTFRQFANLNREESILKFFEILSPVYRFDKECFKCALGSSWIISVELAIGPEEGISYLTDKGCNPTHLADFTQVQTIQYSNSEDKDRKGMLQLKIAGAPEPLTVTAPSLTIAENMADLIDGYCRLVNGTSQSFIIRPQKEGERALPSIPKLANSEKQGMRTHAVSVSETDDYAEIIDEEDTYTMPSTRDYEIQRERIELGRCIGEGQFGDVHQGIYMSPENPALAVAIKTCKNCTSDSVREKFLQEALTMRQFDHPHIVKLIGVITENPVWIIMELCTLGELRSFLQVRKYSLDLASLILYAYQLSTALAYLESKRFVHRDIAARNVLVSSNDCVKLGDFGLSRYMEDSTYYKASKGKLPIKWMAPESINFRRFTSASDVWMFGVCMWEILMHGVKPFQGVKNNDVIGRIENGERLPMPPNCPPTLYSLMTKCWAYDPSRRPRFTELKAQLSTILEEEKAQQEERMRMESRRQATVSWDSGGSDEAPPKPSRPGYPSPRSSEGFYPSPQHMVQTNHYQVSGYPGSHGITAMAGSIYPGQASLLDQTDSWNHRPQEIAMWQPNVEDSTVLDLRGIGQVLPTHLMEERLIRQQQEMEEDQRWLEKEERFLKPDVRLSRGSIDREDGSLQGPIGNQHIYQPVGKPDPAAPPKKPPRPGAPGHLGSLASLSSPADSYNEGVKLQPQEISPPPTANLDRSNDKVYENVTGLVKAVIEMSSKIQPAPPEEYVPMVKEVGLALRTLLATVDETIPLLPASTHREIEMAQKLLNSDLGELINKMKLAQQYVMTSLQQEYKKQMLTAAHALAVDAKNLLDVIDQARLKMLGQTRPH
Chain of Dual specificity tyrosine-phosphorylation-regulated kinase 1B (Homo sapiens) (Q9Y463 whole entry, looked up): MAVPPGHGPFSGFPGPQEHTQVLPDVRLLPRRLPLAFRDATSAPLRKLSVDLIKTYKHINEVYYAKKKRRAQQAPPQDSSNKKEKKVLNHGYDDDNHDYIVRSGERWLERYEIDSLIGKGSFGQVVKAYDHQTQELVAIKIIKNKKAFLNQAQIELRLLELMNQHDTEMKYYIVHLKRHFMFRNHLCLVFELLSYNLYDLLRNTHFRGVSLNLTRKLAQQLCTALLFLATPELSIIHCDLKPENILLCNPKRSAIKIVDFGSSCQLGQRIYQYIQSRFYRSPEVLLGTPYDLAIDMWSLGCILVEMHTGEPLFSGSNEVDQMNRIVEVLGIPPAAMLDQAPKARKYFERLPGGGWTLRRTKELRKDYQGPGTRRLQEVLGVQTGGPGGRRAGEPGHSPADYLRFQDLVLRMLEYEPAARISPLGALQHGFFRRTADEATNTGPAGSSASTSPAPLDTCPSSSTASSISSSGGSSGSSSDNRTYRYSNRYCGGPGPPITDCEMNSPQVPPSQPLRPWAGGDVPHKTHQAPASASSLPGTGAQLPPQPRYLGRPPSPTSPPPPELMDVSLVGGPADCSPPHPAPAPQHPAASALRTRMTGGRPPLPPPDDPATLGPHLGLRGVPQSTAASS
Chain of Ribosomal protein S6 kinase alpha-2 (Homo sapiens) (Q15349 whole entry): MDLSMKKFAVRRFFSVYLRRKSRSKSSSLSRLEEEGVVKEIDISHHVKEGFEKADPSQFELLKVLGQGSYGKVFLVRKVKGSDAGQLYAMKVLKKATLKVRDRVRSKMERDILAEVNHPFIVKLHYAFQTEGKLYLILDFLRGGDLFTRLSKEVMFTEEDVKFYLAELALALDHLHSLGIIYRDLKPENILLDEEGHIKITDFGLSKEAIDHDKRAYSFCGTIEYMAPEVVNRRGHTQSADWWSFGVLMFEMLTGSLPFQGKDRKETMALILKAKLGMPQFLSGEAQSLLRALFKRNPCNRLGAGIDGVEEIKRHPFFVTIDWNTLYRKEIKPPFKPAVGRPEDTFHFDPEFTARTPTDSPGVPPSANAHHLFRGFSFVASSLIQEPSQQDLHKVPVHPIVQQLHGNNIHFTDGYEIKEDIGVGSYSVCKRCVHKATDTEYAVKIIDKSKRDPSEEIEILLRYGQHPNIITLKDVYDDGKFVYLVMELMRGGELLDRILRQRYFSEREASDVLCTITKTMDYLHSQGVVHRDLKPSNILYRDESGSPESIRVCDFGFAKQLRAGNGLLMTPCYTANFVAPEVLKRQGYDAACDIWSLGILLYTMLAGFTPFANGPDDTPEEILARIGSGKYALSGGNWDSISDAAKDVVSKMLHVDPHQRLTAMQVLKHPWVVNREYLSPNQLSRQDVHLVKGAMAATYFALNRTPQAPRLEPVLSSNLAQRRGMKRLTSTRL

Take `COc1cc2ncnc(N[C@H](C)c3cccc4ccccc34)c2cc1OC`: the Activity in [1] stood at 91%; in experiment [2] it was 89%; in experiment [3] it was 89%; in experiment [4], 69%; in experiment [5], 76%; in [6], 100%. Besides, the Activity in [7] was found to be 100%; in experiment [8] it was 90%; in [9], 100%; in [10], 92%; in experiment [11], 100%; in [12], 100%.

These data come from ChEMBL document CHEMBL5678818, “Discovery of potent SOS1 inhibitors that block RAS activation via disruption of the RAS-SOS1 interaction” (Proc Natl Acad Sci U S A, 2019).
